Reference: ChEMBL document CHEMBL4616678, “Design, Synthesis, and Physicochemical and Pharmacological Profiling of 7-Hydroxy-5-oxopyrazolo[4,3-b]pyridine-6-carboxamide Derivatives with Antiosteoarthritic Activity In Vivo” (J Med Chem, 2020)
Values after ≈ are worked out from the molar mass of the structure shown.

Experiments:
Cannabinoid receptor 1 = Cannabinoid receptor 1 (Homo sapiens, UniProt P21554); experiment: Displacement of [3H]-CP-55,940 from recombinant human CB1R expressed in HEK293 cell membranes
Chain of Cannabinoid receptor 1 (P21554 whole entry): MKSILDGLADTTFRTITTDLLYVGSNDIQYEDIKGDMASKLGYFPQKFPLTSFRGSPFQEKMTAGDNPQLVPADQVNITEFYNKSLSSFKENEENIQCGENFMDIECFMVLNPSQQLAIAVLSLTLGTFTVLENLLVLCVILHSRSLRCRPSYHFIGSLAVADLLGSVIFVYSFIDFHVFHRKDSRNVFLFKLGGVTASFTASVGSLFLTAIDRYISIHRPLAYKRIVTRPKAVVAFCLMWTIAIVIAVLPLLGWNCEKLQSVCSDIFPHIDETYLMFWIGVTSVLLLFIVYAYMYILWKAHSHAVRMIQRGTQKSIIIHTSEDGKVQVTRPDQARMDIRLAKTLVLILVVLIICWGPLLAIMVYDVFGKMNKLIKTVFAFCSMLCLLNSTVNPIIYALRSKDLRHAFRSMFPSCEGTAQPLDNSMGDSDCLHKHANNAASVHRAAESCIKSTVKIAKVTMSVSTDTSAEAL

Cannabinoid receptor 2 [1] = target: T1, Cannabinoid receptor 2 (Homo sapiens, UniProt P34972); experiment: Displacement of [3H]-CP-55,940 from recombinant human CB2R expressed in HEK293 cell membranes
T1 sequence (P34972 whole entry): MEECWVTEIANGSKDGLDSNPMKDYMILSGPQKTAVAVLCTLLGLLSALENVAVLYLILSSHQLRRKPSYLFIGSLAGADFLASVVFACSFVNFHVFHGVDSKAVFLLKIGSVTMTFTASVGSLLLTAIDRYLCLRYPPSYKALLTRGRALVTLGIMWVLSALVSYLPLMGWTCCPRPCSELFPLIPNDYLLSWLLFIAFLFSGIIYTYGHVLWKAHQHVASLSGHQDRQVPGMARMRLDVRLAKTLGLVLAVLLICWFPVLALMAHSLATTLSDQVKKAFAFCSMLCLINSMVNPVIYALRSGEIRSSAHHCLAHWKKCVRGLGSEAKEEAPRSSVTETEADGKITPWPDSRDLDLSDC

Cannabinoid receptor 2 [2] = target: T1, Cannabinoid receptor 2; experiment: Inverse agonist activity at recombinant human CB2R expressed in CHOK1 cells assessed as increase in NKH477-stimulated intracellular cAMP levels after 30 mins by chemiluminescent based cAMP Hunter assay; format: functional, cell-based, CHO-K1
NIH3T3 = experiment: Cytotoxicity against mouse NIH/3T3 assessed as reduction in cell viability after 1 to 14 days by Neutral red dye-based UV-visible spectrophotometer analysis; format: functional
[3] = Cytotoxicity against human NHAC-kn assessed as reduction in cell viability after 1 to 14 days by Neutral red dye-based UV-visible spectrophotometer analysis; format: functional
[4] = Kinetic solubility of the compound at pH 1.0 by HPLC-UV method; format: physicochemical; settings: buffer, read-out: Kinetic_solubility
[5] = Kinetic solubility of the compound at pH 7.4 by HPLC-UV method; format: physicochemical; settings: buffer, read-out: Kinetic_solubility
[6] = Ionization Constants, pKa of the compound by UV-vis spectra analysis; format: physicochemical
[7] = Lipophilicity, log P of the compound by UV-vis spectra analysis; format: physicochemical; settings: octanol/water
Homo sapiens = species on record: Homo sapiens; experiment: Selectivity index, ratio of Ki for recombinant human CB1R expressed in HEK293 cell membranes to Ki for recombinant human CB2R expressed in HEK293 cell membranes; format: cell-based
Cannabinoid receptor 2 [8] = target: T1, Cannabinoid receptor 2; experiment: Agonist activity at recombinant human CB2R expressed in CHOK1 cells assessed as inhibition of NKH477-stimulated intracellular cAMP levels after 30 mins by chemiluminescent detection based cAMP Hunter assay; format: functional, cell-based, CHO-K1

For `CCCCCn1c(=O)c(C(=O)NC23CC4CC(CC(C4)C2)C3)c(O)c2nn(CCO)cc21`, the Ki (Cannabinoid receptor 1) was 108 nM, the Ki (Cannabinoid receptor 2 [1]) was 4.8 nM and the EC50 (Cannabinoid receptor 2 [2]) was 880 nM. For the same compound, the IC50 (NIH3T3) was 7500 nM, the IC50 [3] was 2500 nM and the solubility kinetic [4] was 0.38 µg/mL (≈ 0.859 µM). The solubility kinetic [5] was 0.7 µg/mL (≈ 1.58 µM).

`Cn1cc2c(n1)c(O)c(C(=O)NC13CC4CC(CC(O)(C4)C1)C3)c(=O)n2CCCCF` gave a Ki (Cannabinoid receptor 1) greater than 1000 nM, a Ki (Cannabinoid receptor 2 [1]) of 6.2 nM and an EC50 (Cannabinoid receptor 2 [2]) of 590 nM. For the same compound, the IC50 (NIH3T3) was 25000 nM, the IC50 [3] was 12500 nM and the solubility kinetic [4] was 39.9 µg/mL (≈ 92.3 µM). For the same compound, the solubility kinetic [5] was 37.6 µg/mL (≈ 86.9 µM), the pKa [6] was 7.97 and the logP [7] was 3.15.

Compound `CCCCCN1C(=O)C(C(=O)NC23CC4CC(CC(C4)C2)C3)=C(O)C2C1C=NN2C` (stereo not given) has a Ki (Cannabinoid receptor 1) of 56 nM, a Ki (Cannabinoid receptor 2 [1]) of 0.9 nM and a Ratio Ki (Homo sapiens) of 62. It also gave an EC50 (Cannabinoid receptor 2 [8]) of 252 nM, a solubility kinetic [4] of 0.4 µg/mL (≈ 0.965 µM) and a solubility kinetic [5] of 1.08 µg/mL (≈ 2.61 µM).

For `Cn1cc2c(n1)c(O)c(C(=O)NC13CC4CC(CC(C4)C1)C3)c(=O)n2CCCCO`, the Ki (Cannabinoid receptor 1) was greater than 1000 nM, the Ki (Cannabinoid receptor 2 [1]) was 14.3 nM and the EC50 (Cannabinoid receptor 2 [2]) was 1450 nM. It also gave an IC50 (NIH3T3) of 25000 nM, an IC50 [3] of 12500 nM and a solubility kinetic [4] of 2.53 µg/mL (≈ 6.1 µM). The solubility kinetic [5] was 3.2 µg/mL (≈ 7.72 µM).

Work on `CCCCn1c(=O)c(C(=O)NC23CC4CC(CC(C4)C2)C3)c(O)c2nn(CCO)cc21` yielded a Ki (Cannabinoid receptor 1) greater than 1000 nM, a Ki (Cannabinoid receptor 2 [1]) of 18.4 nM and an IC50 (NIH3T3) of 12500 nM. It also gave an IC50 [3] of 2500 nM, a solubility kinetic [4] of 1.6 µg/mL (≈ 3.73 µM) and a solubility kinetic [5] of 2.1 µg/mL (≈ 4.9 µM).

`CCCCn1c(=O)c(C(=O)NC23CC4CC(CC(O)(C4)C2)C3)c(O)c2nn(C)cc21` showed a Ki (Cannabinoid receptor 1) greater than 1000 nM, a Ki (Cannabinoid receptor 2 [1]) of 10.6 nM and an IC50 (NIH3T3) of 7500 nM. The IC50 [3] was 2500 nM, the solubility kinetic [4] was 15 µg/mL (≈ 36.2 µM) and the solubility kinetic [5] was 20.9 µg/mL (≈ 50.4 µM). It also gave a pKa [6] of 7.9 and a logP [7] of 4.08.

Compound `CCCCn1c(=O)c(C(=O)NC23CC4CC(CC(C4)C2)C3)c(O)c2nn(C)cc21` has a Ki (Cannabinoid receptor 1) of 231 nM, a Ki (Cannabinoid receptor 2 [1]) of 2.5 nM and an EC50 (Cannabinoid receptor 2 [2]) of 370 nM. The IC50 (NIH3T3) was 12500 nM, the IC50 [3] was 7500 nM and the solubility kinetic [4] was 0.23 µg/mL (≈ 0.577 µM). It also gave a solubility kinetic [5] of 1.9 µg/mL (≈ 4.77 µM), a pKa [6] of 8.6 and a logP [7] of 5.3.

With `CCCCCn1cc(C(=O)NC23CC4CC(CC(C4)C2)C3)c(=O)c2cc(C(C)C)ccc21` the solubility kinetic [5] was 1 µg/mL (≈ 2.3 µM).

`CN1N=CC2C1C(O)=C(C(=O)NC13CC4CC(CC(O)(C4)C1)C3)C(=O)N2CCCCF` (stereo not given) showed a Ki (Cannabinoid receptor 1) of 161 nM, a Ki (Cannabinoid receptor 2 [1]) of 18.9 nM and an EC50 (Cannabinoid receptor 2 [8]) of 71.8 nM. For the same compound, the IC50 (NIH3T3) was 25000 nM, the IC50 [3] was 7500 nM and the solubility kinetic [4] was 9.1 µg/mL (≈ 20.9 µM). It also gave a solubility kinetic [5] of 15.1 µg/mL (≈ 34.8 µM).

In the case of `CCCn1c(=O)c(C(=O)NC23CC4CC(CC(C4)C2)C3)c(O)c2nn(CCO)cc21`, the Ki (Cannabinoid receptor 1) is reported as greater than 1000 nM, the Ki (Cannabinoid receptor 2 [1]) is reported as 159 nM and the Ratio Ki (Homo sapiens) is reported as 6. It also gave a solubility kinetic [4] of 3.4 µg/mL (≈ 8.2 µM) and a solubility kinetic [5] of 3.9 µg/mL (≈ 9.41 µM).
